The values that follow come from ChEMBL document CHEMBL1201862, “PubChem BioAssay data set” (2004).

SMILES strings stand for the structures.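 Five concentrations, 48 hours, 96-well plates. GI50 is the concentration that inhibits growth by half.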 Calls of active or inactive are those of the source. Cut-off read from the data, not from the text of the source: active = GI50 up to about 1.1 µM and inactive = higher.

Test systems include DLD-1; DMS-114; DMS-273; HOP-18; LXFL 529; M19-MEL; RXF 631; SNB-78; XF498.
Holding throughout (assay): NCI-60 cell line screen, 48 h

As to `CC(=O)Nc1ccc(/C=c2\sc3nnc(/C=C/c4ccccc4)n3c2=O)cc1`, the GI50 with DLD-1 was > 50 µM (inactive); in the assay with DMS-114, > 50 µM (inactive); in the assay with DMS-273, > 50 µM (inactive); in the assay with HOP-18, 17.1 µM (inactive); with LXFL 529 it was > 50 µM (inactive); in the assay with M19-MEL, > 50 µM (inactive). For the same compound, the GI50 in the assay on RXF 631, in the assay with SNB-78 and in the assay on XF498 was > 50 µM (inactive) in each case.
Turning to `O=C1/C(=C/c2ccc(O)cc2)CCC1CNc1ccc(Cl)cc1` (configuration not stated), the GI50 in the assay with DLD-1 was 0.912 µM (active); in the assay with DMS-114, 1.31 µM (inactive); in the assay on DMS-273, 0.836 µM (active); in the assay on HOP-18 it was 6.08 µM (inactive); with LXFL 529, 0.357 µM (active); in the assay with M19-MEL, 1.79 µM (inactive). The results for the GI50 in the assay on RXF 631, with SNB-78 and in the assay with XF498 were 8.89 µM (inactive), 12.5 µM (inactive) and 2.7 µM (inactive), respectively.
Turning to `C/C(=N\NC(=S)N1CCN(c2ccccn2)CC1)c1nccs1`, the GI50 was 0.01 µM (active) in the assay on DMS-114; 0.351 µM (active) in the assay on DMS-273; 2.92 µM (inactive) in the assay on HOP-18; 0.01 µM (active) in the assay with LXFL 529; 0.574 µM (active) in the assay with M19-MEL; 1.05 µM (active) with RXF 631. For the same compound, the GI50 in the assay on SNB-78 was 6.76 µM (inactive); in the assay on XF498 it was 13 µM (inactive).
For the compound `COc1ccc(NCc2cc(OC)cc(OC)c2)cc1`, the GI50 in the assay with DLD-1 is 32.6 µM (inactive); with DMS-114 it was 6.53 µM (inactive); with DMS-273, 6.15 µM (inactive); in the assay with HOP-18, > 42.7 µM (inactive); with LXFL 529 it was 26.2 µM (inactive); in the assay with M19-MEL, 15.1 µM (inactive). The GI50 in the assay on RXF 631 was 10.5 µM (inactive); with SNB-78, 19.6 µM (inactive); with XF498, 4.3 µM (inactive).
On to `CS(=O)(=O)OC1CCC2(C#N)CCC1C2=O` (configuration not stated), for which the GI50 in the assay on DLD-1 is > 100 µM (inactive); in the assay with DMS-273, 22.5 µM (inactive); in the assay on HOP-18 it was > 100 µM (inactive); in the assay on LXFL 529, > 100 µM (inactive); in the assay on M19-MEL, > 100 µM (inactive); in the assay on RXF 631, > 100 µM (inactive). Also, the GI50 in the assay on SNB-78 and with XF498 was > 100 µM (inactive) in each case.
As for `Cc1cccc(NC(=O)C(=O)C(C2OC(=O)c3ccccc32)[N+](=O)[O-])c1C` (configuration not stated), the GI50 is 6.43 µM (inactive) in the assay with DLD-1; 2.86 µM (inactive) in the assay with DMS-114; 2.59 µM (inactive) with DMS-273; 10.5 µM (inactive) in the assay on HOP-18; 8.04 µM (inactive) in the assay on LXFL 529; 1.87 µM (inactive) in the assay on M19-MEL. The GI50 in the assay with RXF 631 was 5.98 µM (inactive); in the assay with SNB-78 it was 17.5 µM (inactive); with XF498, 6.81 µM (inactive).
